Source: paper PMC11843613, “Further Optimization of the mGlu1 PAM VU6024578/BI02982816: Discovery and Characterization of VU6033685” (ACS Chemical Neuroscience, 2025)
Converted amounts (≈) assume the structure as drawn. “Also recorded” adds a separate entry of the source. Like-named read-outs stand apart in the source and are kept apart here.

Assays:
[1] = Solubility in FASSGF and FASSIF; type: physicochemical
[2] = Predicted hepatic clearance (c); type: in vitro ADME, c (presumably cynomolgus)
Procedure: (§1) at half log concentrations in DMSO were further diluted in assay buffer. The compounds or DMSO vehicle were added to cells and incubated for 2.5 min and an EC20 concentration of glutamate was added and incubated for 1 min. An ECmax concentration of glutamate was also added to cells that were incubated with DMSO vehicle to accurately calculate the EC20 calcium response. Data were normalized by subtracting the basal florescent peak before EC20 agonist addition from the maximal peak elicited by EC20 agonist and PAMs. Using GraphPad Prism 5.0, the concentration response curves were generated and the potencies of the mGlu1 PAMs were determined.
(§2) Plasma protein binding: The protein binding of each compound was determined in plasma via equilibrium dialysis employing RED Plates (ThermoFisher Scientific, Rochester, NY). Plasma was added to the 96 well plate containing test compound and mixed thoroughly for a final concentration of 5 µM. […]
(§3) Each compound was assayed in triplicate within the same 96-well plate. Fraction unbound was determined using the following equation […]
(§4) After a 5 min preincubation, the reaction was initiated by addition of NADPH (1 mM). […] The in vitro half-life (T 1/2, min, Eq. 1), intrinsic clearance (CLint, mL/min/kg, Eq. 2) and subsequent predicted hepatic clearance (CLhep, mL/min/kg, Eq. 3) was determined […]

[3] = Kinetic solubility; type: physicochemical; conditions: kinetic from dmso stock
[4] = target: dog mGlu1 (Canis lupus familiaris, UniProt A0A8I3NTE8); test: mGlu1 PAM functional assay (dog); type: cell-based
dog mGlu1, sequence (A0A8I3NTE8 30-1195): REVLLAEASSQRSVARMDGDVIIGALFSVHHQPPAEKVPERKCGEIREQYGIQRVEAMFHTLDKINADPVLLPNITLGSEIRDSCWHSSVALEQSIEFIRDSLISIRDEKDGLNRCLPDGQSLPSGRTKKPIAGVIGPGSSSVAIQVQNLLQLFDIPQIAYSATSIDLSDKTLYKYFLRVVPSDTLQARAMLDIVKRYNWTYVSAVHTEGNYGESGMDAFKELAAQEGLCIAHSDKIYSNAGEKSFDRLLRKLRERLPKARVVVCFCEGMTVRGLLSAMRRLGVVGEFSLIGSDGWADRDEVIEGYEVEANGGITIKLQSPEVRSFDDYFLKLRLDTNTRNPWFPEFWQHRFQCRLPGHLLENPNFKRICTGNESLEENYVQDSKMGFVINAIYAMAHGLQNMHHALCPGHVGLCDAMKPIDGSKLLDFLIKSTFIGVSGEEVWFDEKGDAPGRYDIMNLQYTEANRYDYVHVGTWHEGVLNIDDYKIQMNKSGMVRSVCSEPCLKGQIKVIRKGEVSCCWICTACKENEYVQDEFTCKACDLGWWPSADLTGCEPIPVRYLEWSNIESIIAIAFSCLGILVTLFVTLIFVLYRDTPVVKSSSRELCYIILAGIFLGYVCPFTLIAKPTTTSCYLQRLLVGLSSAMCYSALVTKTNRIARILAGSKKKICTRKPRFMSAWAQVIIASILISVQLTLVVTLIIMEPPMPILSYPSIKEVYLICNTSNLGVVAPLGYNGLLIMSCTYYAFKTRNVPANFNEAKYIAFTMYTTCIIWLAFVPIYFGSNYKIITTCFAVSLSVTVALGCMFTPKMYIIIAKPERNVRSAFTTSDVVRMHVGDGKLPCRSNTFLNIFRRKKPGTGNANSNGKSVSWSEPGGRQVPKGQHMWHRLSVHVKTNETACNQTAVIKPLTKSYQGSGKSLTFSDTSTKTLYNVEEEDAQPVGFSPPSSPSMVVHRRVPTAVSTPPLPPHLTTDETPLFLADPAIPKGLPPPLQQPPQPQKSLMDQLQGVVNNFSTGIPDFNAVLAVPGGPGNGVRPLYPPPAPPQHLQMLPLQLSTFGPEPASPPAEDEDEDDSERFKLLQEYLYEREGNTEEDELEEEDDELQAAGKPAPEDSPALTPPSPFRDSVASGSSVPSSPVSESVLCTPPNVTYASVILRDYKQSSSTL

[5] = Predicted hepatic clearance (dog); type: in vitro ADME
Procedure: as §1, §2, §3, §4

[6] = system: MK-801 disruption of novel object recognition in rats; test: Rat MK-801-induced disruption of novel object recognition (NOR); type: in vivo
Procedure: mode (5.0 kV spray voltage). The calibration curves were constructed in blank plasma. All data were analyzed using AB Sciex Analyst software v1.5.1.
All animal study procedures were approved by the Institutional Animal Care and Use Committee and were conducted in accordance with the National Institutes of Health regulations of animal care covered in Principles of Laboratory Animal Care (National Institutes of Health). […]
GraphPad Prism (version 4.03, GraphPad, La Jolla, CA). […]
The animals are habituated to the novel object arenas for one day prior to testing. This is accomplished by placing the animal in the arena with no objects for 10 min and then placed back […]
into the home cage. The arena is then cleaned with 70% ethanol in between animals. The day of the test the animals are habituated to the dosing room for 2 hours. […]
The animals were then injected with MK-801 (0.075 mg/kg 1 ml/kg s.c.) and placed back in the homecage for 30 min. The animals are then placed into the arena with two identical familiar objects for ten minutes and then placed back into the home cage. The animals are then placed back into the arena with one of the familiar objects replaced with a novel object at 120 min after the familiar object exposure. The activity of the animals are recorded and the time spent exploring each of the objects is scored by a blinded observer. Recognition index is determined by subtracting the time spent with the […] divided by total time spent exploring. […]
NaCl, 26 mM NaHCO3, 11mM D-glucose, 2.5 mM KCl, 2.45mM CaCl2, 1.25mM NaH2PO4 and 1.2mM MgSO4 which was supplemented with 5mM sodium ascorbate. Slices were recovered for at least 1 hour prior to recording. During recording slices were perfused with aCSF in the absence of ascorbate and presence of […] DhβE to block nAChR-mediated dopamine release. […]
Briefly, a triangular voltage wave (-400 to +1000 mV at 300 V/sec) was applied to a fresh-cut carbon fiber electrode every 100 msec. […]

## Cc1nc(C2CC2)ccc1CNC(=O)c1cc(-n2cccn2)ccc1Cl [compound 8]
[1]; FASSGF, fassgf or other biorelevant, read-out: Solubility FASSGF
  solubility: 572 µg/mL (≈ 1560 µM)
[1]; FASSIF, read-out: Solubility FASSIF
  solubility: 23.6 µg/mL (≈ 64.3 µM)
[2]
  Predicted CLhep (c): 33.2 mL/min/kg
[3]; pH 2.2, aqueous buffer, read-out: Kinetic solubility pH 2.2
  solubility kinetic: > 100 µM
[3]; pH 6.8, aqueous buffer, read-out: Kinetic solubility pH 6.8
  solubility kinetic: < 1 µM
[4]
  EC50: 93 nM
[4]; read-out: dog mGlu1 Glu Max
  Emax: 79%
[5]
  Predicted CLhep (d): 15.1 mL/min/kg
[6]; rat PO 30 mg/kg
  free brain level as fold of rat in vitro EC50 at 30 mg/kg in NOR: ~5.2 fold
[6]; rat PO 30 mg/kg, 0.5% Natrasol/0.015% Tween 80 in water
  free brain level at 30 mg/kg in NOR: 579 nM
[6]; rat, PO, MK-801 0.075 mg/kg SC, one-way ANOVA p = 0.13
  reversal of MK-801 disruption of novel object recognition: dose-dependently reverse the deficits induced by MK-801; also recorded: dose-dependently reversed
